We go through 36 compounds from US11505548B2, “Heterocyclic compounds and their use for treatment of helminthic infections and diseases” (Celgene Corporation, priority 2019, dated 2022).

SMILES strings stand for the structures.

As usually defined, the IC50 is the midpoint of a concentration-inhibition curve.

For this assay, the system named is Onchocerca gutturosa Adult Male Worms. The assay can be described thus: Onchocerciasis in vitro screening model, worm motility score. The assay is classed as cell-based. Particulars: Onchocerca gutturosa; Table 1 O. gutturosa; levels A/B/C; motility or MTT readout not specified; read-out: O. gutturosa activity level (IC50 or MED).
With `CN(C)c1cccnc1Nc1nc(-c2ccc(OCC3CC3)cn2)ns1` [Compound 118, N2-(3-(5-(cyclopropyl-methoxy)pyridin-2-yl)-1,2,4-thiadiazol-5-yl)-N3,N3-dimethyl-pyridine-2,3-diamine], the IC50 was less than 0.2 µM.

As for `CC(C)Oc1ccc(-c2nsc(Nc3cc(C(F)(F)F)c(C(C)C)cn3)n2)nc1` [Compound 119, 3-(5-isopropoxy-pyridin-2-yl)-N-(5-isopropyl-4-(trifluoromethyl)pyridin-2-yl)-1,2,4-thiadiazol-5-amine], the IC50 is less than 0.2 µM.

For `CN(C)c1cccnc1Nc1nc(-c2ccc(OC(F)F)cn2)ns1` [Compound 120, N2-(3-(5-(difluoromethoxy)pyridin-2-yl)-1,2,4-thiadiazol-5-yl)-N3,N3-dimethyl-pyridine-2,3-diamine], the half-maximal inhibitory concentration (IC50) fell in the range of 0.5 to 5 µM.

For `CN(C)c1cccnc1Nc1nc(-c2ccc(F)cn2)ns1` [Compound 121, N2-(3-(5-fluoro-pyridin-2-yl)-1,2,4-thiadiazol-5-yl)-N3,N3-dimethylpyridine-2,3-diamine], the IC50 was less than 0.2 µM.

For the compound `CNc1cccnc1Nc1nc(-c2ccc(OC3CCN(C4CC4)CC3(F)F)cn2)ns1` (stereo not drawn) [Compound 122, N2-(3-(5-(1-cyclopropyl-3,3-difluoropiperidin-4-yloxy)pyridin-2-yl)-1,2,4-thiadiazol-5-yl)-N3-methyl-pyridine-2,3-diamine], the IC50 lay in the range of 0.2 to 0.5 µM.

For the compound `CN(C)c1cccnc1Nc1nc(-c2ccc(OC3CCN(C4CC4)CC3(F)F)cn2)ns1` (stereo not drawn) [Compound 123, N2-(3-(5-(1-cyclopropyl-3,3-difluoro-piperidin-4-yloxy)pyridin-2-yl)-1,2,4-thiadiazol-5-yl)-N3,N3-dimethyl-pyridine-2,3-diamine], the IC50 is less than 0.2 µM.

On to `Cc1cccnc1Nc1nc(-c2cnc(OC(C)C)cn2)ns1` [Compound 124, 3-(5-isopropoxy-pyrazin-2-yl)-N-(3-methyl-pyridin-2-yl)-1,2,4-thiadiazol-5-amine], for which the 50% inhibitory concentration (IC50) fell in the range of 0.2 to 0.5 µM.

Turning to `COc1cnc(-c2nsc(Nc3ncccc3C)n2)cn1` [Compound 125, 3-(5-methoxy-pyrazin-2-yl)-N-(3-methyl-pyridin-2-yl)-1,2,4-thiadiazol-5-amine], the IC50 was in the range of 0.5 to 5 µM.

`CC(C)Oc1cnc(-c2nsc(Nc3ncccc3N(C)C)n2)cn1` [Compound 126, N2-(3-(5-iso-propoxypyrazin-2-yl)-1,2,4-thiadiazol-5-yl)-N3,N3-dimethylpyridine-2,3-diamine]: the IC50 was in the range of 0.5 to 5 µM.

Consider `CC(C)c1cccnc1Nc1nc(-c2ccc(OC(F)F)cn2)ns1` [Compound 127, 3-(5-(difluoro-methoxy)pyridin-2-yl)-N-(3-isopropyl-pyridin-2-yl)-1,2,4-thiadiazol-5-amine], for which the IC50 was less than 0.2 µM.

Consider `CC(C)c1cccnc1Nc1nc(-c2ccc(F)cn2)ns1` [Compound 128, 3-(5-fluoro-pyridin-2-yl)-N-(3-isopropyl-pyridin-2-yl)-1,2,4-thiadiazol-5-amine], for which the IC50 was 0.5 to 5 µM.

On to `COc1cccnc1Nc1nc(-c2ccc(OC3CCN(C4CC4)CC3(F)F)cn2)ns1` (stereo not drawn) [Compound 129, 3-(5-(1-cyclopropyl-3,3-difluoro-piperidin-4-yloxy)pyridin-2-yl)-N-(3-methoxypyridin-2-yl)-1,2,4-thiadiazol-5-amine], for which the IC50 lay in the range of 0.5 to 5 µM.

As to `CC(C)Oc1ccc(-c2nsc(N(C)c3ncccc3C(C)C)n2)nc1` [Compound 130, 3-(5-isopropoxy-pyridin-2-yl)-N-(3-isopropy-lpyridin-2-yl)-N-methyl-1,2,4-thiadiazol-5-amine], the IC50 lay within 0.5 to 5 µM.

`CCN(c1nc(-c2ccc(OC(C)C)cn2)ns1)c1ncccc1C` [Compound 131, N-ethyl-3-(5-isopropoxy-pyridin-2-yl)-N-(3-methyl-pyridin-2-yl)-1,2,4-thiadiazol-5-amine]: the IC50 was less than 0.2 µM.

Regarding `CC(C)Oc1ccc(-c2nnc(Nc3ncccc3N(C)C)o2)nc1` [Compound 132, N2-(5-(5-isopropoxy-pyridin-2-yl)-1,3,4-oxadiazol-2-yl)-N3,N3-dimethyl-pyridine-2,3-diamine], the IC50 was less than 0.2 µM.

On to `CC(C)Oc1ccc(-c2noc(Nc3ncccc3N(C)C)n2)nc1` [Compound 133, N2-(3-(5-is-opropoxy-pyridin-2-yl)-1,2,4-oxadiazol-5-yl)-N3,N3-dimethyl-pyridine-2,3-diamine], for which the IC50 was in the range of 0.5 to 5 µM.

Turning to `COc1cccnc1Nc1nc(-c2cc(C(F)(F)F)c(OC3CC3)cn2)ns1` [Compound 134, 3-(5-cyclo-propoxy-4-(trifluoromethyl)pyridin-2-yl)-N-(3-methoxy-pyridin-2-yl)-1,2,4-thiadiazol-5-amine], the IC50 fell in the range of 0.5 to 5 µM.

`Cc1nccnc1Nc1nc(-c2ccc(OC(C)C)cn2)ns1` [Compound 135, 3-(5-isoprop-oxypyridin-2-yl)-N-(3-methyl-pyrazin-2-yl)-1,2,4-thia-diazol-5-amine]: the half-inhibitory concentration (IC50) is less than 0.2 µM.

Take `CN(C)c1cccnc1Nc1nc(-c2ccc(OC3CC(F)(F)C3)cn2)ns1` [Compound 136, N2-(3-(5-(3,3-difluorocyclo-butoxy)pyridin-2-yl)-1,2,4-thiadiazol-5-yl)-N3,N3-dimethyl-pyridine-2,3-diamine]: the IC50 was in the range of 0.5 to 5 µM.

Take `COc1cccnc1Nc1nc(-c2ccc(OC3CC(F)(F)C3)cn2)ns1` [Compound 137, 3-(5-(3,3-difluorocyclo-butoxy)pyridin-2-yl)-N-(3-methoxypyridin-2-yl)-1,2,4-thiadiazol-5-amine]: the IC50 is 0.5 to 5 µM.

`Cc1cccnc1N(c1nc(-c2ccc(OC(C)C)cn2)ns1)C(C)C` [Compound 138, 3-(5-isoprop-oxypyridin-2-yl)-N-isopropyl-N-(3-methylpyridin-2-yl)-1,2,4-thiadiazol-5-amine]: the IC50 lay within 0.5 to 5 µM.

For the compound `CC(C)Oc1ccc(-c2nsc(N(C)c3ncccc3N(C)C)n2)nc1` [Compound 139, N2-(3-(5-isoprop-oxypyridin-2-yl)-1,2,4-thiadiazol-5-yl)-N2,N3,N3-trimethylpyridine-2,3-diamine], the IC50 lay within 0.5 to 5 µM.

For `CC(C)Oc1ccc(-c2n[nH]c(Nc3ncccc3N(C)C)n2)nc1` [Compound 140, N2-(3-(5-isoprop-oxypyridin-2-yl)-1H-1,2,4-triazol-5-yl)-N3,N3-dimethyl-pyridine-2,3-diamine], the half-maximal inhibitory concentration (IC50) was 0.5 to 5 µM.

On to `CN1CC(S(=O)(=O)c2ccc(-c3nsc(Nc4ncccc4N(C)C)n3)nc2)C1` [Compound 141, N3,N3-dimethyl-N2-(3-(5-(1-methylazetidin-3-ylsulfonyl)pyridin-2-yl)-1,2,4-thiadiazol-5-yl)pyridine-2,3-diamine], for which the half-inhibitory concentration (IC50) was in the range of 0.5 to 5 µM.

In the case of `CN1CCC(S(=O)(=O)c2ccc(-c3nsc(Nc4ncccc4N(C)C)n3)nc2)CC1` [Compound 142, N3,N3-dimethyl-N2-(3-(5-(1-methylpiperidin-4-ylsulfonyl)pyridin-2-yl)-1,2,4-thiadiazol-5-yl)pyridine-2,3-diamine], the concentration for half-maximal inhibition (IC50) is 0.5 to 5 µM.

In the case of `CC(C)c1cnc(Nc2nc(-c3ccccn3)n(C)n2)cc1C(F)(F)F` [Compound 143, 5-isopropyl-N-(1-methyl-5-(pyridin-2-yl)-1H-1,2,4-triazol-3-yl)-4-(trifluoromethyl) pyridin-2-amine], the IC50 was in the range of 0.5 to 5 µM.

`CC(C)Oc1ccc(-c2nsc(Nc3nccnc3N(C)C)n2)nc1` [Compound 144, N2-(3-(5-isoprop-oxypyridin-2-yl)-1,2,4-thiadiazol-5-yl)-N3,N3-dimethyl-pyrazine-2,3-diamine]: the concentration for half-maximal inhibition (IC50) lay within 0.2 to 0.5 µM.

For `CN(C)c1cccnc1Nc1nc(-c2ccc(S(=O)(=O)C3CCN(C4CC4)CC3)cn2)ns1` [Compound 145, N2-(3-(5-(1-cyclopropyl-piperidin-4-ylsulfonyl)pyridin-2-yl)-1,2,4-thiadiazol-5-yl)-N3,N3-dimethyl-pyridine-2,3-diamine], the IC50 lay within 0.5 to 5 µM.

As to `CC(C)Oc1ccnc(-c2nc(Nc3cc(C(F)(F)F)c(C(C)C)cn3)nn2C)c1` [Compound 146, N-(5-(4-isoprop-oxypyridin-2-yl)-1-methyl-1H-1,2,4-triazol-3-yl)-5-isopropyl-4-(trifluoro-methyl) pyridin-2-amine], the IC50 is 0.5 to 5 µM.

Consider `CC(C)Oc1cc(-c2nsc(Nc3ncccc3N(C)C)n2)ncc1C(F)(F)F` [Compound 147, N2-(3-(4-isoprop-oxy-5-(trifluoromethyl)pyridin-2-yl)-1,2,4-thiadiazol-5-yl)-N3,N3-dimethyl-pyridine-2,3-diamine], for which the IC50 was 0.5 to 5 µM.

In the case of `CC(C)Oc1cccnc1-c1nc(Nc2cc(C(F)(F)F)c(C(C)C)cn2)nn1C` [Compound 148, N-(5-(3-isoprop-oxypyridin-2-yl)-1-methyl-1H-1,2,4-triazol-3-yl)-5-isopropyl-4-(trifluoromethyl) pyridin-2-amine], the IC50 fell in the range of 0.5 to 5 µM.

Consider `CC(C)COc1ccc(-c2nsc(Nc3ncccc3N(C)C)n2)nc1` [Compound 149, N2-(3-(5-isobutoxy-pyridin-2-yl)-1,2,4-thiadiazol-5-yl)-N3,N3-dimethyl-pyridine-2,3-diamine], for which the IC50 was less than 0.2 µM.

On to `CC(C)COc1cnc(-c2nsc(Nc3ncccc3N(C)C)n2)cn1` [Compound 150, N2-(3-(5-isobutoxy-pyrazin-2-yl)-1,2,4-thiadiazol-5-yl)-N3,N3-dimethyl-pyridine-2,3-diamine], for which the IC50 lay within 0.5 to 5 µM.

With `Cc1cccnc1Nc1nc(-c2cc(OC3CC3)c(C(F)(F)F)cn2)ns1` [Compound 151, 3-(4-cyclo-propoxy-5-(trifluoromethyl)pyridin-2-yl)-N-(3-methylpyridin-2-yl)-1,2,4-thiadiazol-5-amine], the IC50 was less than 0.2 µM.

On to `Cc1cccnc1Nc1nc(-c2cc(OC(C)C)c(C(F)(F)F)cn2)ns1` [Compound 152, 3-(4-isoprop-oxy-5-(trifluoromethyl)pyridin-2-yl)-N-(3-methylpyridin-2-yl)-1,2,4-thia-diazol-5-amine], for which the IC50 fell in the range of 0.2 to 0.5 µM.

On to `CN(C)c1cccnc1Nc1nc(-c2cc(OC3CC3)c(C(F)(F)F)cn2)ns1` [Compound 153, N2-(3-(4-cyclo-propoxy-5-(trifluoromethyl)pyridin-2-yl)-1,2,4-thiadiazol-5-yl)-N3,N3-dimethyl-pyridine-2,3-diamine], for which the IC50 is 0.5 to 5 µM.
